# Tests used:
# Assay in all cases: In vitro antifungal activity, microbroth dilution MIC
# Format in all cases: cell-based
# Conditions in all cases: RPMI-1640, 35° C., 4 to 48 hours, no growth observed
# [1] = system: Aspergillus furnigatus B. 19119
# Procedure, shortened: (§1)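 Broth microdilution adapted from NCCLS M27, in RPMI-1640 with 0.165 M MOPS, pH 7.0. Yeast or mould inoculum at 2×10^3 CFU/ml was mixed 1:1 with DMSO-derived compound solutions (200 to 0.10 μg/ml before mixing) and incubated at 35 °C for 4 to 48 h. MIC was the concentration showing no growth.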
# [2] = system: Aspergillus niger A. 16404
# Procedure, shortened: as §1
# [3] = system: Candida albicans A. 10231
# Procedure, shortened: as §1
# [4] = system: Candida albicans C1-2
# Procedure, shortened: as §1
# [5] = system: Candida albicans IFO. 1385
# Procedure, shortened: as §1
# [6] = system: Candida krusei K. 11655
# Procedure, shortened: as §1
# [7] = system: Candida parapsitosis A. 7330
# Procedure, shortened: as §1
# [8] = system: Candida pseudotropicalis K. 11658
# Procedure, shortened: as §1
# [9] = system: Candida tropicalis A. 13803
# Procedure, shortened: as §1
# [10] = system: Cryptococcus neoformans A. 34144
# Procedure, shortened: as §1
# [11] = system: Cryptococcus neoformans B. 42419
# Procedure, shortened: as §1
# [12] = system: Cryptococcus neoformans IFM. 40092
# Procedure, shortened: as §1
# [13] = system: Torulopsis glabrata B. 16205
# Procedure, shortened: as §1
# [14] = system: Trichophyton mentagrophytes A. 9129
# Procedure, shortened: as §1
# [15] = system: Trichophyton mentagrophytes B. 32663
# Procedure, shortened: as §1
SMILES,"Minimal inhibitory concentration(MIC), A furnigatus B. 19119 [1] [µg/mL]","Minimal inhibitory concentration(MIC), A. niger A. 16404 [2] [µg/mL]","Minimal inhibitory concentration(MIC), C. albicans A. 10231 [3] [µg/mL]","Minimal inhibitory concentration(MIC), C. albicans C1-2 [4] [µg/mL]","Minimal inhibitory concentration(MIC), C. albicans IFO. 1385 [5] [µg/mL]","Minimal inhibitory concentration(MIC), C. krusei K. 11655 [6] [µg/mL]","Minimal inhibitory concentration(MIC), C. parapsitosis A. 7330 [7] [µg/mL]","Minimal inhibitory concentration(MIC), C. pseudotropicalis K. 11658 [8] [µg/mL]","Minimal inhibitory concentration(MIC), C. tropicalis A. 13803 [9] [µg/mL]","Minimal inhibitory concentration(MIC), Cry. neoformans A. 34144 [10] [µg/mL]","Minimal inhibitory concentration(MIC), Cry. neoformans B. 42419 [11] [µg/mL]","Minimal inhibitory concentration(MIC), Cry. neoformans IFM. 40092 [12] [µg/mL]","Minimal inhibitory concentration(MIC), T. glabrata B. 16205 [13] [µg/mL]","Minimal inhibitory concentration(MIC), T. mentagrophytes A. 9129 [14] [µg/mL]","Minimal inhibitory concentration(MIC), T. mentagrophytes B. 32663 [15] [µg/mL]"
Cc1ccc(C=C(F)Oc2ccc(OCC3COC(Cn4ccnc4)(c4ccc(Cl)cc4Cl)O3)cc2)cc1 (mixture of isomers) [Ex. 89],100,>100,100,100,25.0,12.5,12.5,6.25,100,3.13,1.56,0.78,50.0,6.25,6.25
FC(=Cc1cccc(Cl)c1)Oc1ccc(OCC2COC(Cn3ccnc3)(c3ccc(Cl)cc3Cl)O2)cc1 (mixture of isomers) [Ex. 91],100,>100,100,100,6.25,>100,>100,>100,>100,1.56,1.56,0.78,>100,100,>100
FC(=Cc1ccc(F)cc1)Oc1ccc(OCC2COC(Cn3ccnc3)(c3ccc(Cl)cc3Cl)O2)cc1 (mixture of isomers) [Ex. 92],>100,>100,25.0,50.0,3.13,>100,>100,>100,>100,3.13,3.13,0.78,50.0,25.0,12.5
Cc1ccc(C(=C(F)Oc2ccc(OCC3COC(Cn4ccnc4)(c4ccc(Cl)cc4Cl)O3)cc2)C(F)(F)F)cc1 (mixture of isomers) [Ex. 94],>100,>100,25.0,50.0,3.13,>100,>100,>100,>100,3.13,3.13,0.78,50.0,25.0,12.5

# Continued, values first:
"Minimal inhibitory concentration(MIC), A furnigatus B. 19119 [1] [µg/mL]","Minimal inhibitory concentration(MIC), A. niger A. 16404 [2] [µg/mL]","Minimal inhibitory concentration(MIC), C. albicans A. 10231 [3] [µg/mL]","Minimal inhibitory concentration(MIC), C. albicans C1-2 [4] [µg/mL]","Minimal inhibitory concentration(MIC), C. albicans IFO. 1385 [5] [µg/mL]","Minimal inhibitory concentration(MIC), C. krusei K. 11655 [6] [µg/mL]","Minimal inhibitory concentration(MIC), C. parapsitosis A. 7330 [7] [µg/mL]","Minimal inhibitory concentration(MIC), C. pseudotropicalis K. 11658 [8] [µg/mL]","Minimal inhibitory concentration(MIC), C. tropicalis A. 13803 [9] [µg/mL]","Minimal inhibitory concentration(MIC), Cry. neoformans A. 34144 [10] [µg/mL]","Minimal inhibitory concentration(MIC), Cry. neoformans B. 42419 [11] [µg/mL]","Minimal inhibitory concentration(MIC), Cry. neoformans IFM. 40092 [12] [µg/mL]","Minimal inhibitory concentration(MIC), T. glabrata B. 16205 [13] [µg/mL]","Minimal inhibitory concentration(MIC), T. mentagrophytes A. 9129 [14] [µg/mL]","Minimal inhibitory concentration(MIC), T. mentagrophytes B. 32663 [15] [µg/mL]",SMILES
>100,100,100,100,6.25,>100,>100,>100,>100,1.56,1.56,0.78,>100,100,100,FC(=Cc1ccccc1)Oc1ccc(OCC2COC(Cn3ccnc3)(c3ccc(Cl)cc3Cl)O2)cc1 (mixture of isomers) [Ex. 88]
>100,>100,100,100,12.5,>100,>100,>100,>100,12.5,6.25,0.78,100,50.0,50.0,COc1cccc(C=C(F)Oc2ccc(OCC3COC(Cn4ccnc4)(c4ccc(Cl)cc4Cl)O3)cc2)c1 (mixture of isomers) [Ex. 90]
>100,>100,100,>100,6.25,>100,>100,>100,>100,12.5,>100,1.56,100,25.0,25.0,FC(Oc1ccc(OCC2COC(Cn3ccnc3)(c3ccc(Cl)cc3Cl)O2)cc1)=C(c1ccccc1)C(F)(F)F (mixture of isomers) [Ex. 93]

# Source: US6376497B1, “Antifungal azole derivatives having a fluorinated vinyl group and process for preparing same” (Korea Research Institute of Chemical Technology, priority 1999, dated 2002)
